The text below walks through data of patent publication US9315496B2, “Benzopyrone derivative and use thereof” (HUAZHONG UNIVERSITY OF SCIENCE & TECHNOLOGY, priority 2011, dated 2016).

As a reminder, the inhibition is the drop in the measured response relative to a control, in per cent. By melting point is commonly meant the temperature of the solid-liquid transition.

The target in one data set is dopamine D2 receptor (Rattus norvegicus, UniProt P61169). Kind of data set: D2 receptor binding assay (3H-Spiperone, rat brain striatum membrane). As to conditions: read-out: D2 inhibition %.
A further data set addresses T1, 5-HT1A receptor (Rattus norvegicus, UniProt P19327).
T1 sequence (P19327 1-422): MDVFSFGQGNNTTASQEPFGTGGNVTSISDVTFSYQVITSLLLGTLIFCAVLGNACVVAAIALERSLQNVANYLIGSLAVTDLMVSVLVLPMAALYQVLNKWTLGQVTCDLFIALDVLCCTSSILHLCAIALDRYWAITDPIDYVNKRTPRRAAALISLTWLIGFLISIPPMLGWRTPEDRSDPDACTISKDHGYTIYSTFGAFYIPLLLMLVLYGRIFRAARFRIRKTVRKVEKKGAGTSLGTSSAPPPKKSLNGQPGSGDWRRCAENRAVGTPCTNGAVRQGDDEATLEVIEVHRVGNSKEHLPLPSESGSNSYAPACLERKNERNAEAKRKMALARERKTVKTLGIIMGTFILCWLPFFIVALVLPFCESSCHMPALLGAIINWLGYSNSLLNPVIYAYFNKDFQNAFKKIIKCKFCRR
Kind of data set: 5HT1A receptor binding assay (3H-8-OH-DPAT, rat brain striatum membrane). As to conditions: test compound final concentration 10^−5 M; 3H-8-OH-DPAT; rat brain striatum membrane. As to the method:
Incubation at 37° C. was conducted for 10 min, the weight of the tubes were adjusted using a balance after incubation. […] Centrifugation was conducted and repeated 3 times.

The next data set deals with 5-HT2A receptor (Rattus norvegicus, UniProt P14842). Kind of data set: 5HT2A receptor binding assay ([3H]-Ketanserin, rat brain striatum membrane). The following applies: test compound final concentration 10^−5 M; [3H]-Ketanserin; rat brain striatum membrane; read-out: 5HT2A inhibition %.
Sequence of 5-HT2A receptor (P14842 whole entry): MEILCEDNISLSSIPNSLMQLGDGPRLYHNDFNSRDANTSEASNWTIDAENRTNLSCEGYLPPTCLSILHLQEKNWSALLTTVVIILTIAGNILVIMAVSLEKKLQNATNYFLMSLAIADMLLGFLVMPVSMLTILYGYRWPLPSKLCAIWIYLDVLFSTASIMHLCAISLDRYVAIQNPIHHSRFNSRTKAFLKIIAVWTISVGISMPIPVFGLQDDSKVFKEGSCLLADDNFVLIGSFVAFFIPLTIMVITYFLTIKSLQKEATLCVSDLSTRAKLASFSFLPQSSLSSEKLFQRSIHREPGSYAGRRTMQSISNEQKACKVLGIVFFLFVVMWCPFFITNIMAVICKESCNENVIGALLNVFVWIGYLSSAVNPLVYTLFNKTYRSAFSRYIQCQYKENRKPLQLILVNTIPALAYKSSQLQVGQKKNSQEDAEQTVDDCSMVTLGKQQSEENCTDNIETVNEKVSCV

Sequence of dopamine D2 receptor (P61169 whole entry): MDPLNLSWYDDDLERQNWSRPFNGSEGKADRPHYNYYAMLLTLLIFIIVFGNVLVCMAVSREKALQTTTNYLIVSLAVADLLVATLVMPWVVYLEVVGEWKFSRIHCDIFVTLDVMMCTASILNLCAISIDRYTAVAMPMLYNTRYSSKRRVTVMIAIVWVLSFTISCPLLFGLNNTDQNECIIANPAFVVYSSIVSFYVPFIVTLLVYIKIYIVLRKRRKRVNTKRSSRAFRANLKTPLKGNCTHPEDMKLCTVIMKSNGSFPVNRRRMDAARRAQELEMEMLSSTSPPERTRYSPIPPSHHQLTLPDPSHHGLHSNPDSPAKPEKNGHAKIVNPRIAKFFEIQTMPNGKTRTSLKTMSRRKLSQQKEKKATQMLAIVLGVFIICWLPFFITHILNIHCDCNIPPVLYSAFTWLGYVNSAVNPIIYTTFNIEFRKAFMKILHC
Experimental for dopamine D2 receptor: Rats were sacrificed by cervical dislocation on ice. Brain striatum was rapidly taken, and 2 brain striatums were combined into a centrifuge tube, to which 3 ml of buffer (0.05 M Tris-HCl buffer, containing NaCl 120 mM, KCl 5 mM, MgCl2 1 mM, CaCl2 1 mM) was added, homogenization was conducted for 3-4 s at level 4 for four times, and then 5 ml of buffer was then added. The weight of the homogenized tubes were adjusted using a balance, and centrifugation was conducted at 12000 r, 4° C. for 20 min. The supernatant was discarded, and 3 ml of buffer was added (0.05 M Tris-HCl buffer, containing NaCl 120 mM, KCl 5 mM, MgCl2 1 mM, CaCl2 1 mM). Vortex mixer was used for blending, and then 5 ml of buffer was added (0.05 M Tris-HCl buffer, containing NaCl 120 mM, KCl 5 mM, MgCl2 1 mM, CaCl2 1 mM). Centrifugation was conducted (repeated 3 times). After the centrifugations, the supernatant was discarded, and the pellets were stored at −80° C. for future use.
Beckman LS-6500 Multi-function Liquid Scintillation Counter was used.
(1) The prepared membrane was first applied with appropriate amount of homogenized liquid, and homogenizer was used for evenly dispersing. 15 tubes were mixed into a 100 ml container, and appropriate amount of homogenized liquid was added to give 50 ml of membrane suspension, which was reserved for future use.
(2) 100 μL of membrane preparation and 100 μL of buffer were added into each reaction tube.
(3) 100 μL of homogenized liquid was added into the total binding tube (TB), 100 μL of Butaclamol (final concentration 10^−5 M) was added into the non-specific binding tube (NB), and 100 μL of the test compound (final concentration 10^−5 M) was added into the specific binding tube (SB) for each compound.
(5) Each of the reaction tubes was incubated at 37° C. for 20 min. After the reaction was completed, the bound ligands were rapidly filtered under reduced pressure, and the ice-chilled assay buffer was used for adequate washing. The filter was taken out and put into a 3 ml scintillation vial, and 2 ml of toluene scintillation solution was added and blended.
(6) The scintillation vials were put into Liquid Scintillation Counter for counting. Inhibitory rate(1%)=(Total binding tube cpm−compound cpm)/(Total binding tube cpm−non-specific binding tube cpm)×100%
Each assay for the compounds was conducted in duplicate.

Regarding `Cc1cc(=O)oc2c(Cl)c(OCCCCN3CCN(c4nsc5ccccc45)CC3)ccc12` [Compound 20, 7-(4-(4-(3-(1,2-benzisothiazole)-1-piperazinyl)-n-butoxy))-4-methyl-8-chloro-2H-benzopyran-2-one], the melting point is 133 to 135 °C. Further, the inhibition at 10 µM on dopamine D2 receptor came to 9.7%. Besides, at 5-HT1A receptor, the inhibition at 10 µM worked out at 92.8%. In addition, on 5-HT2A receptor, the inhibition at 10 µM came out at 15.5%.
The like results for `Cc1cc(=O)oc2cc(OCCCCCN3CCC(c4noc5cc(F)ccc45)CC3)ccc12` [Compound 9, 7-(5-(4-(3-(6-fluoro-benzisoxazole)-1-piperidyl)-n-pentyloxy))-4-methyl-2H-benzopyran-2-one] were, in that order, 119 to 121 °C, 102%, 88.8% and 120%.
The like results for `Cc1cc(=O)oc2cc(OC/C=C/CN3CCC(c4noc5cc(F)ccc45)CC3)ccc12` [Compound 10, (E)-7-(4-(4-(3-(6-fluoro-benzisoxazole)-3-piperidyl)-but-2-enyloxy))-4-methyl-2H-benzopyran-2-one] were, in that order, 129 to 130 °C, 111%, 102% and 109%.
Taken in the same sequence, the figures for `Cc1cc(=O)oc2c(Cl)c(OCCCN3CCC(c4noc5cc(F)ccc45)CC3)ccc12` [Compound 21, 7-(3-(4-(3-(6-fluoro-benzisoxazole)-1-piperidyl)-n-propoxy))-4-methyl-8-chloro-2H-benzopyran-2-one] were 185 to 187 °C, 32.9%, 101% and 90.1%.
With `O=c1ccc2ccc(OCCCN3CCC(c4noc5cc(F)ccc45)CC3)cc2o1` [Compound 3, 7-(3-(4-(3-(6-fluoro-benzisoxazole)-1-piperidyl)-n-propoxy))-2H-benzopyran-2-one], the melting point was 128 to 130 °C. Further, the inhibition at 10 µM on dopamine D2 receptor was determined as 106%. Also, the inhibition at 10 µM at 5-HT1A receptor is 42.3%. Besides, the inhibition at 10 µM at 5-HT2A receptor was 101%.
The like results for `O=c1cc(-c2ccccc2)c2ccc(OCCCN3CCC(c4noc5cc(F)ccc45)CC3)cc2o1` [Compound 11, 7-(3-(4-(3-(6-fluoro-benzisoxazole)-1-piperidyl)-n-propoxy))-4-phenyl-2H-benzopyran-2-one] were, in that order, 185 to 187 °C, 18.5%, 35.3% and 57.8%.
